{"source": "patent US7786116B2", "about": "“2-amino-quinoline derivatives useful as inhibitors of β-secretase (BACE)” (Janssen Pharmaceutica N.V., priority 2008, dated 2010)", "biological_target": "human BACE-1 (Homo sapiens, UniProt P56817)", "sequence (P56817 46-501)": "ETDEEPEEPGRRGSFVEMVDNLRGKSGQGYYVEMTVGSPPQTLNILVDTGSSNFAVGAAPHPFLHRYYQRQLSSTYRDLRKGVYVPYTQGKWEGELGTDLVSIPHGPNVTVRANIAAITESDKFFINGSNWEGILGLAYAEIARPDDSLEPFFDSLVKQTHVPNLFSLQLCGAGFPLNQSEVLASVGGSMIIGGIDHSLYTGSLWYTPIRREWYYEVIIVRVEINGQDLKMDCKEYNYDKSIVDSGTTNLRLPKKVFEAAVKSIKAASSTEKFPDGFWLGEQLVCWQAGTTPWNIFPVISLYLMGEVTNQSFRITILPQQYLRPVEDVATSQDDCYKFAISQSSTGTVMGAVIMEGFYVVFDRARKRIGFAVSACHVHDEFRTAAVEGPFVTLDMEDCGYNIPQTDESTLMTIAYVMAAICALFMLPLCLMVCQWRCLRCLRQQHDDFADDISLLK", "experiment": "in vitro BACE Assay-1 (CEREP, fluorogenic substrate)", "format": "biochemical", "details": "test compound at 1 μM", "experimental": "This assay was run by CEREP (Catalog Ref. 761-B, Referred to SOP No. 1C131; ERMOLIEFF, J., LOY, J. A., KOELSCH, G. and TANG, J., Proteolytic activation of recombinant pro-memapsin 2 (pro-BACE) studied with new fluorogenic substrates, Biochemistry, (2000) Vol. 39, p. 12450).\nMore specifically the assay, run at 50 μL in a 96 well plate, evaluated the effect of test compound on the activity of the human BACE-1 quantified by measuring the formation of Mca-S-E-V-N-L-NH2 from Mca-S-E-V-N-L-D-A-E-F-R-K(Dnp)-R—R—NH2, using a recombinant enzyme.\nThe test compound, reference compound or water (control) was added to a buffer containing 0.09 M sodium acetate (pH 4.5) and 0.25 μg BACE-1. Compound interference with the fluorimetric detection method due to autofluorescence was then checked by measurements at the wavelengths defined to evaluate the enzyme activity. Thereafter, the reaction was initiated by adding 7.5 μM of the substrate Mca-S-E-V-N-L-D-A-E-F-R-K(Dnp)-R—R—NH2 and the mixture was incubated for 60 min at 37° C. For control basal measurement, the substrate was omitted from the reaction mixture. Immediately after the incubation, the fluorescence intensity emitted by the reaction product Mca-S-E-V-N-L-NH2 was measured at λex=320 nm and λem=405 nm using a microplate reader (Ultra, Tecan). The standard inhibitory reference compound was OM99-2, which was tested in each experiment at several concentrations to obtain an inhibition curve from which its IC50 value was calculated.\nRepresentative compounds of the present invention were tested in the assay as described above, with results as listed in Table 3, below.", "data": [{"smiles": "CN(C(=O)CCC(c1cc2cc(-c3ccccc3F)ccc2nc1N)C1CCCCC1)C1CCCCC1", "note": "(single isomer, unassigned) [Compound 11]", "values": [{"measurement": "% Inh @ 1 μM", "value": 28, "unit": "%"}]}]}
